According to BigSolDB 2.1:

Nc1cccc(S(=O)(=O)c2cccc(N)c2)c1
solubility (mole fraction)
Conditions	283.15 K	288.15 K	293.15 K	298.15 K	303.15 K	308.15 K	313.15 K	318.15 K	323.15 K	328.15 K
in 1,4-dioxane	0.00411	0.00462	0.00538	0.00652	0.0083	0.0102	0.0123	0.0147	0.0169	0.0194
in DMF	0.0869	0.0916	0.0989	0.11	0.12	0.132	0.146	0.162	0.181	0.2
in acetonitrile	0.00609	0.00709	0.0087	0.0105	0.0127	0.0151	0.0182	0.0225	0.0272	0.033
in cyclohexane	2.7e-06	3.6e-06	5.1e-06	7.7e-06	1.09e-05	1.51e-05	2.03e-05	2.78e-05	3.7e-05	4.86e-05
in ethanol	0.00237	0.00256	0.00297	0.00349	0.00415	0.00492	0.00574	0.00661	0.00738	0.00837
in ethyl acetate	0.0146	0.0162	0.0184	0.021	0.0243	0.0278	0.0321	0.037	0.0424	0.0485
in ethylene glycol	0.00458	0.00515	0.00595	0.00701	0.00843	0.0101	0.012	0.0144	0.0168	0.0194
in isobutanol	0.000586	0.000665	0.000784	0.000952	0.00115	0.00137	0.00166	0.002	0.00234	0.00271
in isopropanol	0.00106	0.00121	0.00148	0.00196	0.00258	0.00326	0.00406	0.005	0.00611	0.00731
in methanol	0.00319	0.00351	0.00397	0.00482	0.00604	0.00744	0.00905	0.0107	0.0125	0.0152
in n-butanol	0.00109	0.00121	0.00142	0.00171	0.00205	0.00246	0.00294	0.00343	0.00396	0.00452
in n-heptanol	0.000699	0.000776	0.000898	0.00106	0.0013	0.0016	0.002	0.00242	0.0029	0.00346
in n-propanol	0.00142	0.00152	0.00177	0.00214	0.00254	0.00301	0.00356	0.00418	0.00496	0.0059
in water	1.52e-05	1.9e-05	2.51e-05	3.32e-05	4.29e-05	5.62e-05	7.79e-05	0.000106	0.000145	0.000198
